Source: paper PMC5522084, “Eg5 inhibitor YL001 induces mitotic arrest and inhibits tumor proliferation” (Oncotarget, 2017)

Tests used:
human cancer cell lines = experiment: Antiproliferation screening of 23 selected compounds (Alamar Blue); assay type: cell-based; conditions: proliferation inhibition
Description: (§1) Cytotoxic activities of the compounds of interest were investigated with human cancer cell lines using the Alamar Blue assay. Cells (5 × 10^3 cells/well) were seeded into 96-well plates (Corning, 3603). Various sample concentrations (compounds of interest) were added to each well in duplicate, and incubated at 37°C with 5% CO2 for two days such that cells were in the exponential growth phase at the time of drug addition. Ten microliters of the Alamar Blue Solution (Invitrogen, Alamar Blue) were added to each well and incubated at 37°C for up to 2 hours in a humidified, 5% CO2 atmosphere. After incubation, florescence was measured using a microplate reader (Tecan) at an excitation wavelength of 540 nm and emission of 590 nm. Each inhibitory concentration was measured in triplicate, and averaged data points ± SD are shown. Statistical analysis was carried out with GraphPad Prism 5 and the fifty-percent effective concentration is expressed as EC50.

Eg5 motor domain = biological target: T1, Eg5 motor domain (Homo sapiens, UniProt P52732); experiment: SPR assay (Biacore T200); assay type: binding; conditions: for Binding Level (RU): SPR screening
T1 sequence (P52732 18-359 limits assumed): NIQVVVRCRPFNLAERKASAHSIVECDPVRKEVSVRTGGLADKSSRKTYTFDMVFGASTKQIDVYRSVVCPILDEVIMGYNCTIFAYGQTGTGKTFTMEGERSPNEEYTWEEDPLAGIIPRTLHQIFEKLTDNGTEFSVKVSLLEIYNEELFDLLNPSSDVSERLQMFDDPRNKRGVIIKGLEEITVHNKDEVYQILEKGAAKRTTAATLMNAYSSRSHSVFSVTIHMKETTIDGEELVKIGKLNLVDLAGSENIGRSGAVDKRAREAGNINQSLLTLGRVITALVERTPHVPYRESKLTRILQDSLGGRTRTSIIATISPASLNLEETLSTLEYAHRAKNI
Description: Interactions of the Eg5 motor domain and compounds of interest were analyzed using the Biacore T200 system (GE Healthcare, Uppsala, Sweden) at 25°C. Eg5 motor protein obtained as previously described (51) was immobilized on a sensor chip (CM5) using an amine coupling kit (GE Healthcare, Buckinghamshire, UK). […] For binding studies, analytes were applied at corresponding concentrations in running buffer at a flow rate of 30 μL/minute with a contact time of 60 seconds and a dissociation time of 60 seconds. Chip platforms were washed with running buffer and 50% DMSO. Data were analyzed with Biacore evaluation software (T200 Version 1.0) by curve fitting using a steady state 1:1 binding model and a kinetic model.

HeLa = experiment: Antiproliferation assay (Alamar Blue), HeLa; assay type: cell-based; conditions: Homo sapiens, 48 h, HeLa cell line, two days
Description: as §1

HeLa cells = experiment: Colony formation; assay type: cell-based; conditions: Homo sapiens, exposed 24 hours, cultured 10 days
Description: HeLa cells (5 × 10^2 cells/well) were seeded into 6-well plates and were treated with a series of gradient concentrations of YL001 for 24 hours, followed by washing and continual culture for 10 days. DMSO was used as a negative control, and STLC was used as a positive control. Cells were fixed with ethanol for more than 30 minutes and dyed with crystal violet for more than 30 minutes. Clones were counted with OpenCFU [54].

Eg5 = Eg5 (Homo sapiens, UniProt P52732); experiment: Inhibition of Eg5 ATPase activity; assay type: biochemical; conditions: read-out: Enzyme EC50
Description: All experiments were performed as previously described. Data were analyzed using GraphPad Prism 5 and Microsoft Excel to obtain EC50 values. […] Each inhibitory concentration was measured in triplicate, and averaged data points ± SD are shown.

Sequence of Eg5 (P52732 whole entry): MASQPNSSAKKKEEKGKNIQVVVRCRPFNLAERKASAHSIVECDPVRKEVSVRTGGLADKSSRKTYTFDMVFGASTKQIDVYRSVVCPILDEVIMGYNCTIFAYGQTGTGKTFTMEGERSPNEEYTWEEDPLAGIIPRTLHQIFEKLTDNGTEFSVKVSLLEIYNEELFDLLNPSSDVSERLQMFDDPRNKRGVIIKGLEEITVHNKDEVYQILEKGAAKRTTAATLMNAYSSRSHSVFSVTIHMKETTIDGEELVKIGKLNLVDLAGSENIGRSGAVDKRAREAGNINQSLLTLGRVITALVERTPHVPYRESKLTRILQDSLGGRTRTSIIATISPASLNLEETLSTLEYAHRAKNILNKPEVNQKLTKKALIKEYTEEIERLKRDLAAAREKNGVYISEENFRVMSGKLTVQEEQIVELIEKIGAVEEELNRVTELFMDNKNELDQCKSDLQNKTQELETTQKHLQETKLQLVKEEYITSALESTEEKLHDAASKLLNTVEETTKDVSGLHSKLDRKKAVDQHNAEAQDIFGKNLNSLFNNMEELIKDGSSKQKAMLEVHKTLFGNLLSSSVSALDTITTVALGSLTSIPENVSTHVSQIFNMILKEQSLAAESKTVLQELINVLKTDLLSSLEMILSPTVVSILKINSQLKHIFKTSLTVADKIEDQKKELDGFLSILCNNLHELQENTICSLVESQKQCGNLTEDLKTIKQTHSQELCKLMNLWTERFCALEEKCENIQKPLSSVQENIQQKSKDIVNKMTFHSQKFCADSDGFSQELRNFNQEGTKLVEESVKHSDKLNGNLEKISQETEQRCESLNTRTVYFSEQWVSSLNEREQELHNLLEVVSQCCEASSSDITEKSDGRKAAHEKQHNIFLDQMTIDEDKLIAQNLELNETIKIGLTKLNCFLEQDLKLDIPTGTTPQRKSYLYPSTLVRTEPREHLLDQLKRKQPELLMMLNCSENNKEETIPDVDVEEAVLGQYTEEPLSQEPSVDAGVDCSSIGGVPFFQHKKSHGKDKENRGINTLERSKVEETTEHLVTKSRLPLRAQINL

SMILES | Inhibition (50 μM) (human cancer cell lines) | Binding Level (RU) (Eg5 motor domain) | further results
CCc1cc(C(c2ccccc2F)N2CCOCC2)c(NC(=O)c2ccccc2)s1 (stereo not drawn) [AP-906/42853823] | 19.16% | 60.7 RU | 
COC(=O)C1NC(c2ccc(F)cc2)(c2ccc(F)cc2)C2C(=O)N(c3ccc(Cl)cc3)C(=O)C12 (stereo not drawn) [AH-487/42271989] | 41.63% | 31.9 RU | 
CC(=O)Nc1sc2c(c1C(c1ccc(OC(F)F)cc1)N1CCOCC1)CCCC2 (stereo not drawn) [AF-399/41981012] | 14.85% | 3.8 RU | 
N[C@@H](CSC(c1ccccc1)(c1ccccc1)c1ccccc1)C(=O)O [STLC, S-Trityl-L-cysteine, reference compound] |  |  | EC50 (HeLa): 1.46 ± 0.06 µM; IC50 (HeLa cells): 1.25 µM
Cc1ccc(/C(O)=C2\C(=N)N(c3ccccc3)C3=C(C(=O)CCC3)C2c2ccccc2)cc1 (stereo not drawn) [AN-919/14547078] | 30.07% | 56.6 RU | 
N#CC1=C(N)Oc2n[nH]c(-c3cccc4ccccc34)c2C1c1cccc(O)c1 (stereo not drawn) [AJ-292/15089069] | 58.97% | 100.1 RU | 
COC(=O)CN1C(c2ccccc2)=Nc2ccc(Br)cc2C1c1ccccc1 (stereo not drawn) [AG-690/36921098] | 21.81% | 61.1 RU | 
Cc1ccc(SC(c2ccccc2)C(Cn2cncn2)C(=O)c2ccc(Br)cc2)cc1 (stereo not drawn) [AQ-714/41675002] | 32.65% | 2.3 RU | 
Cc1ccc(C2C3=C(CCCC3=O)N(c3ccc(Br)cc3)C(=N)/C2=C(/O)c2ccccc2)cc1 (stereo not drawn) [AN-919/14547113] | 21.56% | 1.9 RU | 
CCOC(=O)C1C2c3ccccc3C(c3ccccc32)C1C(=O)OCC (stereo not drawn) [AE-842/33003047] | –30.66% | 14.6 RU | 
Cc1ccc(N2C(=N)/C(=C(/O)c3ccccc3)C(c3ccc([N+](=O)[O-])cc3)C3=C2CCCC3=O)cc1Cl (stereo not drawn) [AN-919/14545008] | 26.79% | 57.7 RU | 
CC1(C)CC(=O)C2=C(C1)OC(N)=C(C#N)C21C(=O)N(Cc2ccccc2Cl)c2ccccc21 (stereo not drawn) [AM-807/14957480] | 30.76% | 16.3 RU | 
CC(=O)C1=NN(c2ccc(C)cc2)C(c2c[nH]c3ccccc23)N1c1ccc(C)cc1 (stereo not drawn) [AN-465/13570058] | 98.24% | 7.4 RU | 
CC(=O)C1=NN(c2ccc(Cl)cc2)C(c2ccc3c(c2)OCO3)N1c1ccccc1 (stereo not drawn) [AK-778/11811129] | 9.38% | 59.8 RU | 
CN(C)CCN1C(=O)C(=O)/C(=C(/O)c2ccccc2)C1c1ccc2c(c1)OCO2 (stereo not drawn) [AG-205/13765047] | –18.48% | 3.4 RU | 
N=C1/C(=C(/O)c2ccccc2)C(c2ccccc2)C2=C(CCCC2=O)N1c1ccc(Br)cc1 (stereo not drawn) [AN-919/14547075] | 27.56% | 69.6 RU | 
Cc1ccc(N=C2S/C(=C/c3ccccc3OCC(=O)N3CCOCC3)C(=O)N2Cc2ccccc2)cc1 [AO-081/41364431] | 29.79% | 56.4 RU | 
CCOC(=O)C1=CN2C(C=C1)C(C(=C(C#N)C#N)C1CC1)C(c1ccccc1)C2C(=O)c1ccccc1 (stereo not drawn) [AG-205/33162003] | 60.89% | 32.8 RU | 
OC(COCc1ccc2c(c1)OCO2)CN1CCN(C(c2ccccc2)c2ccccc2)CC1 (stereo not drawn) [AF-399/14739190] | 22.02% | 36.9 RU | 
COc1ccc(C(OCC2OC(n3cnc4c(N)ncnc43)C(O)C2O)(c2ccccc2)c2ccccc2)cc1 (stereo not drawn) [Compound 7170] |  |  | EC50 (HeLa): 13.3 ± 1.32 µM; EC50 (Eg5): 18 µM; Kd (Eg5 motor domain; SPR Biacore T200, 25°C): 1.13 µM
NC1=C(C(=O)OCc2ccccc2)C2(C(=O)Nc3ccc(Br)cc32)C2=C(CCCC2=O)O1 (stereo not drawn) [AK-777/10805059] | 31.51% | 20.7 RU | 
O=[N+]([O-])c1ccc(COc2ccccc2C2N(Cc3ccccc3)CCN2Cc2ccccc2)cc1 [AG-205/14740101] | 0.87% | 27.7 RU | 
Cn1cc(C2C(=O)NC(c3ccccc3)=NN2C(=O)c2ccccc2)c2ccccc21 (stereo not drawn) [AG-227/37394007] | 97.78% | 8.7 RU | 
Cc1ccc(N2C(=O)CSC23C(=O)N(CN2CCN(c4ccccc4)CC2)c2ccccc23)cc1C (stereo not drawn) [AG-205/13460017] | 30.78% | 44.5 RU | 
Cc1ccc(-n2nnnc2/C(=C/N(C)C)C(=O)c2cccc(C(F)(F)F)c2)cc1 [AG-401/37257005] | 95.06% | 18.8 RU | 
